Results reported in ChEMBL document CHEMBL1201861, “Genomics of Drug Sensitity in Cancer screening data, Wellcome Trust Sanger Institute”.

Columns and labels:
Experiment in all cases: cells
[1] = test system: SAOS-2; format: functional, cell-based, Homo sapiens; settings: Homo sapiens, SAOS-2;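 also: growth inhibition of human Saos-2 cells determined by a cell viability assay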
Description: SANGER: Inhibition of human Saos-2 cell growth in a cell viability assay.

[2] = test system: EGI-1; format: functional, cell-based, Homo sapiens; settings: Homo sapiens, EGI-1;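 also: cell viability readout used to gauge growth inhibition of EGI-1 cells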
Description: SANGER: Inhibition of human EGI-1 cell growth in a cell viability assay.

[3] = test system: RKO; format: functional, cell-based, Homo sapiens; settings: Homo sapiens, RKO;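 also: growth inhibition of human RKO cells, read out with a cell viability assay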
Description: SANGER: Inhibition of human RKO cell growth in a cell viability assay.

[4] = test system: no-10; format: functional, cell-based, Homo sapiens; settings: Homo sapiens;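 also: growth inhibition of no-10 cells, read out with a cell viability assay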
Description: SANGER: Inhibition of human no-10 cell growth in a cell viability assay.

[5] = test system: BT-20; format: functional, cell-based, Homo sapiens; settings: Homo sapiens, BT-20;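 also: cell viability assay measuring suppression of growth in human BT-20 cells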
Description: SANGER: Inhibition of human BT-20 cell growth in a cell viability assay.

[6] = test system: 8305C; format: functional, cell-based, Homo sapiens; settings: Homo sapiens, 8305C
Description: SANGER: Inhibition of human 8305C cell growth in a cell viability assay.

[7] = test system: U-87 MG; format: functional, cell-based, U-87MG ATCC; settings: Homo sapiens;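 also: growth inhibition of the cells measured with a viability assay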
Description: SANGER: Inhibition of human U-87-MG cell growth in a cell viability assay.

[8] = test system: NCI-H747; format: functional, cell-based; settings: Homo sapiens;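 also: growth inhibition of human NCI-H747 cells, read out by a cell viability assay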
[9] = test system: Lu-65; format: functional, cell-based; settings: Homo sapiens;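 also: growth inhibition of Lu-65 cancer cells, read out by a cell viability assay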
Description: SANGER: Inhibition of human LU-65 cell growth in a cell viability assay.

[10] = test system: CGTH-W-1; format: functional, cell-based, Homo sapiens; settings: Homo sapiens, CGTH-W-1;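 also: growth inhibition of human CGTH-W-1 cells measured by cell viability assay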
Description: SANGER: Inhibition of human CGTH-W-1 cell growth in a cell viability assay.

[11] = test system: HDLM-2; format: functional, cell-based; settings: Homo sapiens;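 also: cell viability assay measuring suppression of HDLM-2 proliferation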
Description: SANGER: Inhibition of human HDLM-2 cell growth in a cell viability assay.

[12] = test system: CAMA-1; format: functional, cell-based, Homo sapiens; settings: Homo sapiens, CAMA-1;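 also: growth inhibition of CAMA-1 cells, read out with a cell viability assay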
Description: SANGER: Inhibition of human CAMA-1 cell growth in a cell viability assay.

[13] = test system: SW13; format: functional, cell-based, Homo sapiens; settings: Homo sapiens, SW13;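 also: IC50 is inhibition of SW13 cell growth, read out with a cell viability assay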
Description: SANGER: Inhibition of human SW13 cell growth in a cell viability assay.

[14] = test system: SHP77; format: functional, cell-based, Homo sapiens, SHP-77; settings: Homo sapiens, SHP77;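 also: growth inhibition of human SHP-77 cells measured by a cell viability assay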
Description: SANGER: Inhibition of human SHP-77 cell growth in a cell viability assay.

[15] = test system: MKN-1; format: functional, cell-based, Homo sapiens; settings: Homo sapiens, MKN-1;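 also: growth inhibition of human MKN1 cells, read out by a cell viability measurement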
Description: SANGER: Inhibition of human MKN1 cell growth in a cell viability assay.

[16] = test system: CaR-1; format: functional, cell-based, Homo sapiens; settings: Homo sapiens, CaR-1;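 also: growth inhibition of human CaR-1 cancer cells, read out with a cell viability assay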
Description: SANGER: Inhibition of human CaR-1 cell growth in a cell viability assay.

[17] = test system: NKM-1; format: functional, cell-based; settings: Homo sapiens;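 also: growth inhibition of NKM-1 cells, read out with a cell viability assay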
Description: SANGER: Inhibition of human NKM-1 cell growth in a cell viability assay.

[18] = test system: NCI-H510A; format: functional, cell-based; settings: Homo sapiens;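 also: growth inhibition of NCI-H510A cells, read out with a cell viability assay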
Description: SANGER: Inhibition of human NCI-H510A cell growth in a cell viability assay.

[19] = test system: SCC-4; format: functional, cell-based, Homo sapiens; settings: Homo sapiens, SCC-4;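 also: growth inhibition of human SCC-4 cells, read out as cell viability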
Description: SANGER: Inhibition of human SCC-4 cell growth in a cell viability assay.

[20] = test system: NCI-H28; format: functional, cell-based, Homo sapiens; settings: Homo sapiens, NCI-H28;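 also: growth inhibition of human NCI-H28 cells, read out as cell viability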
Description: SANGER: Inhibition of human NCI-H28 cell growth in a cell viability assay.

[21] = test system: NTERA-2-cl-D1; format: functional, cell-based, Homo sapiens; settings: Homo sapiens, NTERA-2-cl-D1;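 also: inhibition of cell growth, measured with a cell viability assay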
Description: SANGER: Inhibition of human NTERA-S-cl-D1 cell growth in a cell viability assay.

[22] = test system: LK-2; format: functional, cell-based, Homo sapiens; settings: Homo sapiens, LK-2;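 also: growth inhibition of LK-2 cells, read out with a viability assay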
Description: SANGER: Inhibition of human LK-2 cell growth in a cell viability assay.

[23] = test system: CTB-1; format: functional, cell-based; settings: Homo sapiens
Description: SANGER: Inhibition of human CTB-1 cell growth in a cell viability assay.

[24] = test system: MC116; format: functional, cell-based; settings: Homo sapiens;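 also: growth inhibition of MC116 cells, read out with a cell viability assay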
Description: SANGER: Inhibition of human MC116 cell growth in a cell viability assay.

[25] = test system: SCC-9; format: functional, cell-based, Homo sapiens; settings: Homo sapiens, SCC-9;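 also: Read-out is a cell viability assay, with values giving inhibition of cell growth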
Description: SANGER: Inhibition of human SCC-9 cell growth in a cell viability assay.

[26] = test system: HEC-1; format: functional, cell-based, Homo sapiens; settings: Homo sapiens, HEC-1;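 also: growth inhibition of the cell line, read out with a cell viability assay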
Description: SANGER: Inhibition of human HEC-1 cell growth in a cell viability assay.

[27] = test system: NCI-H1693; format: functional, cell-based, Homo sapiens; settings: Homo sapiens, NCI-H1693;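 also: growth inhibition of the human cell line, read out with a cell viability assay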
Description: SANGER: Inhibition of human NCI-H1693 cell growth in a cell viability assay.

[28] = test system: A101D; format: functional, cell-based, Homo sapiens; settings: Homo sapiens, A101D;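 also: growth inhibition of the cell line, measured with a viability assay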
Description: SANGER: Inhibition of human A101D cell growth in a cell viability assay.

[29] = test system: SW1710; format: functional, cell-based, Homo sapiens; settings: Homo sapiens, SW1710;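 also: growth inhibition of SW1710 cells, determined with a cell viability assay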
Description: SANGER: Inhibition of human SW1710 cell growth in a cell viability assay.

[30] = test system: EFM-19; format: functional, cell-based, Homo sapiens; settings: Homo sapiens, EFM-19;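 also: growth inhibition of human EFM-19 cells, measured in a cell viability assay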
Description: SANGER: Inhibition of human EFM-19 cell growth in a cell viability assay.

[31] = test system: ES5; format: functional, cell-based, Homo sapiens; settings: Homo sapiens, ES5;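 also: growth inhibition of human ES5 cells, read out by a cell viability assay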
[32] = test system: COLO-741; format: functional, cell-based, Homo sapiens; settings: Homo sapiens, COLO-741
Description: SANGER: Inhibition of human COLO-741 cell growth in a cell viability assay.

[33] = test system: NCI-H650; format: functional, cell-based, Homo sapiens; settings: Homo sapiens, NCI-H650;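 also: growth inhibition of NCI-H650 cells, read out by a viability assay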
Description: SANGER: Inhibition of human NCI-H650 cell growth in a cell viability assay.

[34] = test system: SW1463; format: functional, cell-based, Homo sapiens; settings: Homo sapiens, SW1463;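 also: growth inhibition of SW1463 cells, determined with a cell viability assay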
Description: SANGER: Inhibition of human SW1463 cell growth in a cell viability assay.

[35] = test system: SW48; format: functional, cell-based, Homo sapiens; settings: Homo sapiens, SW48;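 also: growth inhibition of SW48 cells, read out with a cell viability assay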
Description: SANGER: Inhibition of human SW48 cell growth in a cell viability assay.

[36] = test system: RXF 393; format: functional, cell-based; settings: Homo sapiens;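 also: growth inhibition of human RXF 393 cells, read out with a cell viability assay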
[37] = test system: NCI-H2342; format: functional, cell-based; settings: Homo sapiens;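 also: growth inhibition of the cancer cell line, determined with a cell viability assay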
Description: SANGER: Inhibition of human NCI-H2342 cell growth in a cell viability assay.

[38] = test system: no-11; format: functional, cell-based, Homo sapiens; settings: Homo sapiens;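 also: growth inhibition of human NO-11 cells, read out with a cell viability assay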
Description: SANGER: Inhibition of human no-11 cell growth in a cell viability assay.

[39] = test system: NCI-H520; format: functional, cell-based, Homo sapiens; settings: Homo sapiens, NCI-H520;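 also: growth inhibition of NCI-H520 cells, measured by a cell viability assay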
Description: SANGER: Inhibition of human NCI-H520 cell growth in a cell viability assay.

[40] = test system: CAL-27; format: functional, cell-based, Homo sapiens; settings: Homo sapiens, CAL-27;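 also: Viability-based readout, IC50 reflecting inhibition of CAL-27 cell growth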
Description: SANGER: Inhibition of human CAL-27 cell growth in a cell viability assay.

[41] = test system: RCC10RGB; format: functional, cell-based, Homo sapiens; settings: Homo sapiens, RCC10RGB;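 also: growth inhibition of human RCC10RGB cells, read out by a cell viability assay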
Description: SANGER: Inhibition of human RCC10RGB cell growth in a cell viability assay.

[42] = test system: KG-1; format: functional, cell-based; settings: Homo sapiens;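 also: growth inhibition of KG-1 cells, read out by a cell viability assay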
[43] = test system: HCE-T; format: functional, cell-based, Homo sapiens; settings: Homo sapiens, HCE-T;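 also: cell viability assay read-out, reporting inhibition of HCE-T cell growth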
Description: SANGER: Inhibition of human HCE-T cell growth in a cell viability assay.

[44] = test system: U-266; format: functional, cell-based; settings: Homo sapiens
Description: SANGER: Inhibition of human U-266 cell growth in a cell viability assay.

[45] = test system: MHH-PREB-1; format: functional, cell-based; settings: Homo sapiens;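 also: cell viability assay measuring inhibition of proliferation of human MHH-PREB-1 cells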
Description: SANGER: Inhibition of human MHH-PREB-1 cell growth in a cell viability assay.

[46] = test system: LS-513; format: functional, cell-based, Homo sapiens; settings: Homo sapiens, LS-513
Description: SANGER: Inhibition of human LS-513 cell growth in a cell viability assay.

[47] = test system: RVH-421; format: functional, cell-based, Homo sapiens; settings: Homo sapiens, RVH-421
Description: SANGER: Inhibition of human RVH-421 cell growth in a cell viability assay.

[48] = test system: Huh-7; format: functional, cell-based, Homo sapiens; settings: Homo sapiens, Huh-7;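 also: HuH-7 cell growth inhibition, read out with a cell viability assay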
Description: SANGER: Inhibition of human HuH-7 cell growth in a cell viability assay.

[49] = test system: NCI-N87; format: functional, cell-based, Homo sapiens; settings: Homo sapiens, NCI-N87;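 also: growth inhibition of human NCI-N87 cells, read out with a cell viability assay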
Description: SANGER: Inhibition of human NCI-N87 cell growth in a cell viability assay.

[50] = test system: M14; format: functional, cell-based, Homo sapiens; settings: Homo sapiens, M14;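 also: growth inhibition of M14 cells, read out with a cell viability assay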
Description: SANGER: Inhibition of human M14 cell growth in a cell viability assay.

[51] = test system: NCI-H1838; format: functional, cell-based, Homo sapiens; settings: Homo sapiens, NCI-H1838;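 also: growth inhibition of NCI-H1838 cells, determined with a cell viability readout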
Description: SANGER: Inhibition of human NCI-H1838 cell growth in a cell viability assay.

## O=C(c1cc(Cc2n[nH]c(=O)c3ccccc23)ccc1F)N1CCN(C(=O)C2CC2)CC1 [OLAPARIB]
[1]
  IC50: > 5 µM
[2]
  IC50: > 5 µM
[3]
  IC50: > 5 µM
[4]
  IC50: > 5 µM
[5]
  IC50: > 5 µM
[6]
  IC50: > 5 µM
[7]
  IC50: > 5 µM
[8]
  IC50: > 5 µM
[9]
  IC50: > 5 µM
[10]
  IC50: > 5 µM
[11]
  IC50: > 5 µM
[12]
  IC50: > 5 µM
[13]
  IC50: > 5 µM
[14]
  IC50: > 5 µM
[15]
  IC50: > 5 µM
[16]
  IC50: > 5 µM
[17]
  IC50: 1.25 µM
[18]
  IC50: 3.83 µM
[19]
  IC50: > 5 µM
[20]
  IC50: > 5 µM
[21]
  IC50: 1.33 µM
[22]
  IC50: > 5 µM
[23]
  IC50: > 5 µM
[24]
  IC50: > 5 µM
[25]
  IC50: > 5 µM
[26]
  IC50: > 5 µM
[27]
  IC50: > 5 µM
[28]
  IC50: > 5 µM
[29]
  IC50: > 5 µM
[30]
  IC50: > 5 µM
[31]
  IC50: 2.88 µM
[32]
  IC50: > 5 µM
[33]
  IC50: > 5 µM
[34]
  IC50: > 5 µM
[35]
  IC50: > 5 µM
[36]
  IC50: > 5 µM
[37]
  IC50: > 5 µM
[38]
  IC50: > 5 µM
[39]
  IC50: > 5 µM
[40]
  IC50: > 5 µM
[41]
  IC50: > 5 µM
[42]
  IC50: > 5 µM
[43]
  IC50: > 5 µM
[44]
  IC50: > 5 µM
[45]
  IC50: > 5 µM
[46]
  IC50: > 5 µM
[47]
  IC50: > 5 µM
[48]
  IC50: > 5 µM
[49]
  IC50: > 5 µM
[50]
  IC50: > 5 µM
[51]
  IC50: > 5 µM

## C=C1C(=O)O[C@@H]2C3O[C@]3(C)CC/C=C(\C)CC[C@@H]12 (stereo not given in full)
[3]
  IC50: > 5 µM
[4]
  IC50: 1.34 µM
[7]
  IC50: > 5 µM
[8]
  IC50: > 5 µM
[9]
  IC50: > 5 µM
[10]
  IC50: > 5 µM
[11]
  IC50: > 5 µM
[14]
  IC50: > 5 µM
[17]
  IC50: > 5 µM
[18]
  IC50: > 5 µM
[21]
  IC50: > 5 µM
[23]
  IC50: 3.85 µM
[24]
  IC50: > 5 µM
[28]
  IC50: > 5 µM
[31]
  IC50: > 5 µM
[36]
  IC50: > 5 µM
[38]
  IC50: > 5 µM
[41]
  IC50: > 5 µM
[42]
  IC50: > 5 µM
[43]
  IC50: > 5 µM
[44]
  IC50: > 5 µM
[45]
  IC50: > 5 µM
[46]
  IC50: > 5 µM
[49]
  IC50: > 5 µM
[51]
  IC50: > 5 µM

## CO[C@H]1C[C@@H]2CC[C@@H](C)[C@@](O)(O2)C(=O)C(=O)N2CCCC[C@H]2C(=O)O[C@H]([C@H](C)C[C@@H]2CC[C@@H](O)[C@H](OC)C2)CC(=O)[C@H](C)/C=C(\C)[C@@H](O)[C@@H](OC)C(=O)[C@H](C)C[C@H](C)/C=C/C=C/C=C/1C [SIROLIMUS]
[3]
  IC50: 0.0503 µM
[4]
  IC50: 0.00729 µM
[7]
  IC50: > 0.1 µM
[8]
  IC50: > 0.1 µM
[9]
  IC50: > 0.1 µM
[10]
  IC50: > 0.1 µM
[11]
  IC50: > 0.1 µM
[14]
  IC50: > 0.1 µM
[17]
  IC50: > 0.1 µM
[18]
  IC50: > 0.1 µM
[21]
  IC50: 0.000443 µM
[23]
  IC50: > 0.1 µM
[24]
  IC50: 0.000985 µM
[28]
  IC50: 0.0326 µM
[31]
  IC50: > 0.1 µM
[36]
  IC50: > 0.1 µM
[38]
  IC50: 0.0832 µM
[41]
  IC50: > 0.1 µM
[42]
  IC50: > 0.1 µM
[43]
  IC50: > 0.1 µM
[44]
  IC50: > 0.1 µM
[45]
  IC50: 0.0324 µM
[46]
  IC50: > 0.1 µM
[49]
  IC50: > 0.1 µM
[51]
  IC50: > 0.1 µM

## Cc1cc(Nc2cc(N3CCN(C)CC3)nc(Sc3ccc(NC(=O)C4CC4)cc3)n2)n[nH]1 [TOZASERTIB]
[3]
  IC50: 0.308 µM
[4]
  IC50: > 2 µM
[7]
  IC50: > 2 µM
[8]
  IC50: > 2 µM
[9]
  IC50: > 2 µM
[10]
  IC50: > 2 µM
[11]
  IC50: > 2 µM
[14]
  IC50: > 2 µM
[17]
  IC50: 1.03 µM
[18]
  IC50: 0.438 µM
[21]
  IC50: 0.0143 µM
[23]
  IC50: > 2 µM
[24]
  IC50: 0.85 µM
[28]
  IC50: 1.87 µM
[31]
  IC50: > 2 µM
[36]
  IC50: > 2 µM
[38]
  IC50: > 2 µM
[41]
  IC50: > 2 µM
[42]
  IC50: > 2 µM
[43]
  IC50: > 2 µM
[44]
  IC50: > 2 µM
[45]
  IC50: > 2 µM
[46]
  IC50: > 2 µM
[51]
  IC50: > 2 µM
